≈ marks a conversion by molar mass, not a printed value.
Tested on: HIV-1 (RF)
Assay: HIV RNA Assay (HIV-1 infected MT-2 cells)
Assay type: cell-based
Conditions: Human immunodeficiency virus 1, MT2, 72 h; HIV-1 (RF) infected MT-2 cells, 3 days of culture; read-out: IC90 value (concentration of compound required to reduce the HIV RNA level by 90%)
Procedure: DNA Plasmids and in vitro RNA transcripts
Plasmid pDAB 72 containing both gag and pol sequences of BH10 (bp 113-1816) cloned into PTZ 19R was prepared according to Erickson-Viitanen et al., AIDS Research and Human Retroviruses (1989) 5:577. The plasmid was linearized with Bam HI prior to the generation of in vitro RNA transcripts using the Riboprobe Gemini system II kit (Promega) with T7 RNA polymerase. Synthesized RNA was purified by treatment with RNase free DNAse (Promega), phenol-chloroform extraction, and ethanol precipitation. RNA transcripts were dissolved in water, and stored a -70° C. The concentration of RNA was determined from the A260.
Biotinylated capture probes were purified by HPLC after synthesis on an Applied Biosystems (Foster City, Calif.) DNA synthesizer by addition of biotin to the 5' terminal end of the oligonucleotide, using the biotin-phosphoramidite reagent of Cocuzza, Tet. Lett. (1989) 30:6287. […]
MT-2, CEM, and H9 cells were maintained in RPMI 1640 supplemented with 5% fetal calf serum (FCS), 2 mM L-glutamine and 50 μg/mL gentamycin, all from Gibco. […] Infectious titers of HIV-1(RF) stocks were 1-3×10^7 PFU (plaque forming units)/mL as measured by plaque assay on MT-2 cells (see below). […]

Nc1ccn([C@H]2CC[C@@H](CO)O2)c(=O)n1 [ddC, 2',3'-dideoxycytidine]
IC90: 0.2 µg/mL (≈ 0.947 µM)

Source: patent US5683999A, “Cyclic urea HIV protease inhibitors” (The DuPont Merck Pharmaceutical Company, priority 1996, dated 1997)
